Data on one molecule can be found in PMC8222713, “Variation of Two S3b Residues in KV4.1–4.3 Channels Underlies Their Different Modulations by Spider Toxin κ-LhTx-1” (Frontiers in Pharmacology, 2021).

Assay [1] relates to KV4.2/D281K mutant. As to the kind of experiment: Whole-cell patch clamp, KV4.2/D281K (with hKChIP1) in CHO-K1 cells. Type of assay: cell-based, rat. The procedure:
(§1) The cDNA of hKV1.1, hKV1.3, rKV1.4, hKV1.5, rKV2.1, hKV3.1–3.4, mKV4.1, rKV4.2, and rKV4.3 were subcloned in the eukaryotic expression vector pCDNA3.1 or pCMV-blank. Channel mutants were made by a site-directed mutation method. Briefly, a pair of oppositely directed primers with 15 bp overlap at their 5′ ends and the designed mutation site were used to amplify the parental channel plasmid, then the PCR mix was treated with DpnI to remove the template. 10 μL digestion mix was directly used to transform 100 μL DH5α chemical competent cells. The correct mutation made by this procedure was finally confirmed by DNA sequencing. CHO-K1 cells (ATCC® CCL-61™) were grown in DMEM-F12 mixed medium (1:1) supplemented with 10% FBS and maintained in standard conditions (saturated humidity, 37°C, 5% CO2). Channel plasmid was co-transfected with pEGFP-N1 (encodes the green fluoresence protein) into CHO-K1 cells using lipofectamine 2000 following the manufacturer’s instructions. 4–6 h after transfection, cells were seeded onto poly-lysine (PLL) coated coverslips, and 24–36 h later, transfected cells were ready for patch-clamp analysis. It should be note that KV4.2 and its mutants were also co-expressed with hKChIP1 to promote their functional expressions.
(§2) Whole-cell patch clamp recording was performed in an electrophysiology platform equipped with MultiClamp 700B amplifier and Axon Digidata 1550 AD/DA convertor (Axon Instruments, Irvine, CA, United States). Data were acquired using the pClamp software (Axon Instruments, Irvine, CA, United States). All experiments were performed at room temperature. The bath solution contains (in mM): 140 NaCl, 5 KCl, 1 MgCl2, 2 CaCl2, 10 glucose, and 10 HEPES (pH = 7.3). The pipette solution contains (in mM): 140 KCl, 2.5 MgCl2, 11 EGTA, and 10 HEPES (pH = 7.3). Series resistance was kept below 10 MΩ and compensated to 80%. The concentration–response curves were fitted by a Hill logistic equation to estimate the potency (IC50) of the toxin. The whole cell conductance (G) at each depolarizing voltage (V) was determined using the equation: G = I/(V−Vrev), where I and Vrev represents the current amplitude and the reversal potential, respectively. In the present study, Vrev for K^+ current is determined to be −85.61 mV using the Nernst equation. G-V curve was obtained by plotting the normalized G as a function of V and fitted by the Boltzmann equation: y = 1/{1 + exp [(Va−V)/K]}, in which Va, V, and K represents half-maximum activation voltage, test voltage and slope factor, respectively. The steady-state fast inactivation of KV4 channels was measured using a classical two-pulses protocol: cell was held at −120 mV, and a train of conditional voltages (−120–40 mV, in 10 mV increment, 1,000 ms) were applied to induce channel inactivation, followed by a +60 mV test pulse (300 ms) to assess the proportion of non-inactivated channels; the sweep interval was set to 10 s. Currents at the test pulse (I) were normalized to the maximum value (Imax) and plotted as a function of the conditional voltage (V), the curve was fitted by the Boltzmann equation: I/Imax = A + (1−A)/{1 + exp [(V−Vh)/K]}, where Vh is the half-maximum inactivation voltage, A represents the minimum channel availability, and K is the slope factor. Gating currents of KV4.1–4.3 channels were measured as previously reported ([Tilley et al., 2019]). Briefly, the ionic pore currents were abolished by replacing K^+ with NMDG^+ in the pipette solution, and 10 µM Cs^+ was present in the bath solution to occupy the selectivity filter of KV channels to prevent decay of the gating currents during recording.
(§3) Data were presented as MEAN ± SEM, n represents the number of separate experimental cells. Data were analyzed using the software Clampfit 10.5 (Axon Instruments, Irvine, CA, United States), Graphpad Prism 5.01 (GraphPad Software, La Jolla, CA, United States) and Excel 2010 (Microsoft Corporation, Redmond, WA, United States). […]

For assay [2], the target named is T1, KV4.2 channel (rKV4.2) (Rattus norvegicus, UniProt Q63881).
T1 construct: expressed in transfected cells; host or cells: CHO-K1 (transient, co-transfected with pEGFP-N1 and hKChIP1)
T1 sequence (Q63881 1-630): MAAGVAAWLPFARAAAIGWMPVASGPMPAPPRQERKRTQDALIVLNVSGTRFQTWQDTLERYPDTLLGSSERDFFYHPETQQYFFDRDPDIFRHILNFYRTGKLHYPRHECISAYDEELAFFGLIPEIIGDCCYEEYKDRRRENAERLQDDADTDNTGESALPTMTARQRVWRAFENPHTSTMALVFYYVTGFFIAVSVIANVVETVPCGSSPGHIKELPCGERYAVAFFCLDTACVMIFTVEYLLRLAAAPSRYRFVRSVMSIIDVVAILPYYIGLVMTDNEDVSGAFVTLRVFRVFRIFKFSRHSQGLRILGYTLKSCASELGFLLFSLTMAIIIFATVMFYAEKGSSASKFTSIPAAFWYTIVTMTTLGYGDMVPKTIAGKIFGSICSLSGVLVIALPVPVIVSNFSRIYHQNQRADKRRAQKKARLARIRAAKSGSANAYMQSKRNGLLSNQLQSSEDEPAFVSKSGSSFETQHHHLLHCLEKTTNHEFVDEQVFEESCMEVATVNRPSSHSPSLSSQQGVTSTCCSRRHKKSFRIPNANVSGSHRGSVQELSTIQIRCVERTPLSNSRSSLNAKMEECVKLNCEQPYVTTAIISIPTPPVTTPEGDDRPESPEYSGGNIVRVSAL
T1 sequence (Q9NZI2 1-227 partner): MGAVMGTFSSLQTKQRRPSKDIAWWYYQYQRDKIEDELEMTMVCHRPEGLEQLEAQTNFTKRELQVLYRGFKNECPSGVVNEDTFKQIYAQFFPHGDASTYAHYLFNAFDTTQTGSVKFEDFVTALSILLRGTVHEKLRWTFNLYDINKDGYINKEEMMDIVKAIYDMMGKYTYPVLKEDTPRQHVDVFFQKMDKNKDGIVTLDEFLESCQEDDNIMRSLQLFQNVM
As to the kind of experiment: Whole-cell patch clamp, KV4.2 (with hKChIP1) in CHO-K1 cells. The assay is classed as cell-based. The procedure: as §1, §2, §3

Setting [3] is: 10 μM κ-LhTx-1, G-V, mean ± SEM, n = 6.
Setting [4] is: 10 μM κ-LhTx-1, two-pulse protocol, mean ± SEM, n = 6.
[5] abbreviates: 10 μM κ-LhTx-1, KV4.2, G-V, mean ± SEM, n = 8.
Where [6] appears, read: 10 μM κ-LhTx-1, KV4.2, two-pulse protocol, mean ± SEM, n = 6.

Structures are written as SMILES. Where a SMILES comes first, the peptide text is derived from it. Bridges are numbered along the chain shown (N, C = ends).

On to `CC[C@H](C)[C@@H]1NC(=O)[C@H](CCC(N)=O)NC(=O)[C@@H]2CSSC[C@@H]3NC(=O)[C@H](CC(C)C)NC(=O)[C@H](CC(N)=O)NC(=O)[C@H](CCSC)NC(=O)[C@H](Cc4c[nH]c5ccccc45)NC(=O)[C@H](CO)NC(=O)[C@H](C)NC(=O)[C@@H](NC(=O)[C@H](CCC(=O)O)NC(=O)[C@H](CCC(N)=O)NC(=O)[C@H](C)NC(=O)[C@H](CC(=O)O)NC(=O)[C@@H](N)CCC(=O)O)CSSC[C@H](NC(=O)[C@H](CSSC[C@@H](C(=O)N[C@@H](CCCCN)C(=O)N[C@@H](Cc4ccc(O)cc4)C(=O)N[C@@H](CCCCN)C(=O)N[C@@H](CC(C)C)C(N)=O)NC(=O)[C@H](Cc4c[nH]c5ccccc45)NC1=O)NC(=O)[C@H](CCCCN)NC(=O)[C@H](CCCCN)NC(=O)[C@H](CCC(=O)O)NC(=O)CNC3=O)C(=O)N[C@@H](CCC(=O)O)C(=O)NCC(=O)N[C@@H](Cc1ccc(O)cc1)C(=O)N[C@@H](C(C)C)C(=O)N2` [κ-LhTx-1] (H-EDAQECASWMNLCGEKKCCEGYVCQIWCKYKL-NH2; disulfide 6-19, 13-24, 18-28 (inferred); N-terminus and C-terminus assumed), for which the “Va (steady-state activation)” value in assay [1] (setting [3]) is on record as 61.96 ± 1.96 mV; in assay [2] (setting [5]), 30.24 ± 1.82 mV. Besides, the “k, slope factor (steady-state activation)” value is listed as 18.73 ± 0.70 mV in assay [1] (setting [3]) and 21.99 ± 0.42 mV in assay [2] (setting [5]). The “Vh (steady-state inactivation)” value is on record as -27.43 ± 2.53 mV in assay [1] (setting [4]) and -69.67 ± 1.87 mV in assay [2] (setting [6]). In addition, the results for the “k, slope factor (steady-state inactivation)” value in assay [1] (setting [4]) and in assay [2] (setting [6]) were 15.24 ± 1.42 mV and 7.22 ± 0.26 mV, respectively. In addition, the “voltage-dependence of inhibition vs parental KV4.2” value in assay [1] (10 μM, still greater than in KV4.1) is “much less voltage-dependence”. The “∆Va (steady-state activation)” value in assay [1] (Va shift by 10 μM κ-LhTx-1 vs control, mean ± SEM) was found to be 68.10 ± 2.92 mV; in assay [2] (Va shift by 10 μM κ-LhTx-1 vs control, KV4.2, mean ± SEM), 39.52 ± 2.55 mV. Further, the “∆Vh (steady-state inactivation)” value in assay [1] (Vh shift by 10 μM κ-LhTx-1 vs control, mean ± SEM) was determined as 33.23 ± 2.95 mV. For the same molecule, in assay [2] (KV4.2), the reversibility of inhibition entry is “in a reversible manner”. Moreover, the voltage-dependence of inhibition result in assay [2] (KV4.2, 10 µM, inhibition ratio at each depolarizing voltage, n = 5–8) is given as “decreased quickly with the increment of the depolarizing voltage”. Further, the I-V relationship shift entry in assay [2] (KV4.2, 10 µM, n = 5–8) is “only a small shift”. Further, the “current inhibition at Va” value in assay [2] (KV4.2 at Va depolarizing voltage) is listed as “almost fully inhibited”.
